Data: PubChem BioAssay AID256 (DTP/NCI, 2004)
Inconclusive results and toxic doses are left out. How the source made its calls: active means survival T/C of 150% or more; inactive means T/C below 125% in these data.

Test system: CD2F1 mice, L1210 leukemia ip, survival T/C
Assay: NCI In Vivo Anticancer Drug Screen. Data for tumor model L1210 Leukemia (intraperitoneal) in CD2F1 (CDF1) mice
Details: higher = longer survival
In short: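 Tumor-bearing mice (transplanted tumor) were split into treated and vehicle control groups, and the measured endpoint of each treated group was divided by that of its vehicle controls.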

[1] = endpoint: mean survival time, dose: 100.0 mg/kg/injection, schedule: Q04DX003 (ip), vehicle: saline with Tween-80
[2] = endpoint: mean survival time, dose: 200.0 mg/kg/injection, schedule: Q04DX003 (ip), vehicle: saline with Tween-80
[3] = endpoint: mean survival time, dose: 400.0 mg/kg/injection, schedule: Q04DX003 (ip), vehicle: saline with Tween-80

Measured: T/C

O=C(O)c1c2c(nc3ccccc13)-c1ccccc1C1(CCCC1)C2
inactive: [1] 92 % of control | [2] 99 % of control

CO[C@@H]1C2=CC=CC=C[C@H]2n2c(=O)n(C)c(=O)n21
inactive: endpoint: median survival time, dose: 37.5 mg/kg/injection, schedule: Q01DX005 (ip), vehicle: other 95 % of control | endpoint: median survival time, dose: 75.0 mg/kg/injection, schedule: Q01DX005 (ip), vehicle: other 100 % of control | endpoint: median survival time, dose: 150.0 mg/kg/injection, schedule: Q01DX005 (ip), vehicle: other 95 % of control

[Br][Pt+2][Br].[NH-]c1cccc(I)c1.[NH-]c1cccc(I)c1
inactive: endpoint: mean survival time, dose: 3.12 mg/kg/injection, schedule: Q04DX003 (ip), vehicle: distilled water + Tween-80 98 % of control | endpoint: mean survival time, dose: 6.25 mg/kg/injection, schedule: Q04DX003 (ip), vehicle: distilled water + Tween-80 101 % of control | endpoint: mean survival time, dose: 12.5 mg/kg/injection, schedule: Q04DX003 (ip), vehicle: distilled water + Tween-80 101 % of control | endpoint: mean survival time, dose: 25.0 mg/kg/injection, schedule: Q04DX003 (ip), vehicle: distilled water + Tween-80 101 % of control | endpoint: mean survival time, dose: 50.0 mg/kg/injection, schedule: Q04DX003 (ip), vehicle: distilled water + Tween-80 101 % of control | endpoint: mean survival time, dose: 100.0 mg/kg/injection, schedule: Q04DX003 (ip), vehicle: distilled water + Tween-80 98 % of control | endpoint: mean survival time, dose: 200.0 mg/kg/injection, schedule: Q04DX003 (ip), vehicle: distilled water + Tween-80 114 % of control

CCC1(C)CCC2=C(CCC3C(C)(C(=O)OC)CCCC23C)C1 (stereo not given)
inactive: endpoint: mean survival time, dose: 100.0 mg/kg/injection, schedule: Q01DX001 (ip), vehicle: saline with Tween-80 93 % of control | endpoint: mean survival time, dose: 200.0 mg/kg/injection, schedule: Q01DX001 (ip), vehicle: saline with Tween-80 89 % of control | endpoint: mean survival time, dose: 400.0 mg/kg/injection, schedule: Q01DX001 (ip), vehicle: saline with Tween-80 89 % of control

CCOC(=O)c1ccc(N(CC)CC)cc1
inactive: endpoint: mean survival time, dose: 100.0 mg/kg/injection, schedule: Q01DX009 (ip), vehicle: saline with Tween-80 95 % of control | [1] 104 % of control | endpoint: mean survival time, dose: 200.0 mg/kg/injection, schedule: Q01DX009 (ip), vehicle: saline with Tween-80 92 % of control | [2] 98 % of control | endpoint: mean survival time, dose: 400.0 mg/kg/injection, schedule: Q01DX009 (ip), vehicle: saline with Tween-80 95 % of control | [3] 94 % of control

CC(C)c1ccccc(=O)c1O.CC(C)c1ccccc(=O)c1O.[Cu]
inactive: endpoint: mean survival time, dose: 6.25 mg/kg/injection, schedule: Q01DX009 (ip), vehicle: saline with Tween-80 102 % of control | endpoint: mean survival time, dose: 12.5 mg/kg/injection, schedule: Q01DX009 (ip), vehicle: saline with Tween-80 100 % of control | endpoint: mean survival time, dose: 25.0 mg/kg/injection, schedule: Q01DX009 (ip), vehicle: saline with Tween-80 103 % of control

CC(=O)OC1COC(n2nnc3c(-c4ccccc4)c(C)nn32)C(OC(C)=O)C1OC(C)=O (stereo not given)
inactive: endpoint: median survival time, dose: 12.5 mg/kg/injection, schedule: Q01DX005 (ip), vehicle: Klucel (hydroxypropylcellulose) (HPC) 112 % of control | endpoint: median survival time, dose: 25.0 mg/kg/injection, schedule: Q01DX005 (ip), vehicle: Klucel (hydroxypropylcellulose) (HPC) 104 % of control | endpoint: median survival time, dose: 50.0 mg/kg/injection, schedule: Q01DX005 (ip), vehicle: Klucel (hydroxypropylcellulose) (HPC) 97 % of control | endpoint: median survival time, dose: 100.0 mg/kg/injection, schedule: Q01DX005 (ip), vehicle: Klucel (hydroxypropylcellulose) (HPC) 100 % of control | endpoint: median survival time, dose: 200.0 mg/kg/injection, schedule: Q01DX005 (ip), vehicle: Klucel (hydroxypropylcellulose) (HPC) 95 % of control

Cc1ccc2c(/C=C/c3ccc(N(C)C)cc3)ccnc2c1
inactive: endpoint: mean survival time, dose: 100.0 mg/kg/injection, schedule: Q04DX003 (ip), vehicle: Klucel (hydroxypropylcellulose) (HPC) 93 % of control | endpoint: mean survival time, dose: 200.0 mg/kg/injection, schedule: Q04DX003 (ip), vehicle: Klucel (hydroxypropylcellulose) (HPC) 104 % of control | endpoint: mean survival time, dose: 400.0 mg/kg/injection, schedule: Q04DX003 (ip), vehicle: Klucel (hydroxypropylcellulose) (HPC) 116 % of control

CCCCCCC[CH2][Sn]1([CH2]CCCCCCC)[O]C2C(CO)OC(n3ccc4c(N)ncnc43)C2[O]1 (stereo not given)
inactive: endpoint: mean survival time, dose: 0.78 mg/kg/injection, schedule: Q01DX005 (ip), vehicle: other 110 % of control | endpoint: mean survival time, dose: 1.56 mg/kg/injection, schedule: Q01DX005 (ip), vehicle: other 107 % of control | endpoint: mean survival time, dose: 3.13 mg/kg/injection, schedule: Q01DX005 (ip), vehicle: other 115 % of control | endpoint: mean survival time, dose: 6.25 mg/kg/injection, schedule: Q01DX005 (ip), vehicle: other 102 % of control

O=c1cn[nH]c2c(Br)cc(Br)cc12
inactive: [1] 103 % of control | [2] 97 % of control | [3] 97 % of control

O=C1C(=O)C(Br)=C(Br)C(Br)=C1Br
inactive: [1] 91 % of control | [2] 91 % of control

O=C(Nc1cc(Cl)cc(Cl)c1)C(F)(F)F
inactive: endpoint: mean survival time, dose: 100.0 mg/kg/injection, schedule: Q01DX001 (ip), vehicle: saline 107 % of control | endpoint: mean survival time, dose: 200.0 mg/kg/injection, schedule: Q01DX001 (ip), vehicle: saline 101 % of control | endpoint: mean survival time, dose: 400.0 mg/kg/injection, schedule: Q01DX001 (ip), vehicle: saline 101 % of control

Cc1ccc(S(=O)(=O)N/N=C2/CC3CCC(C)(C2)C3)cc1 (stereo not given)
inactive: [3] 94 % of control
